Calls of active or inactive are those of the source.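 Rule for the calls: active = compounds whose fitted IC50 falls under 25000 nM; inactive = the rest.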
Target: Serine/threonine-protein phosphatase 5 (Homo sapiens) (UniProt P53041)
Assay: PP5 inhibitor IC50 with OMFP, dose response, biochemical, fluorescence, round 5, 3.8 nM low dose (AID 624433)
Settings: purified PP5c, OMFP dephosphorylation

Serine/threonine-protein phosphatase 5 (Homo sapiens), sequence (P53041 whole entry, looked up): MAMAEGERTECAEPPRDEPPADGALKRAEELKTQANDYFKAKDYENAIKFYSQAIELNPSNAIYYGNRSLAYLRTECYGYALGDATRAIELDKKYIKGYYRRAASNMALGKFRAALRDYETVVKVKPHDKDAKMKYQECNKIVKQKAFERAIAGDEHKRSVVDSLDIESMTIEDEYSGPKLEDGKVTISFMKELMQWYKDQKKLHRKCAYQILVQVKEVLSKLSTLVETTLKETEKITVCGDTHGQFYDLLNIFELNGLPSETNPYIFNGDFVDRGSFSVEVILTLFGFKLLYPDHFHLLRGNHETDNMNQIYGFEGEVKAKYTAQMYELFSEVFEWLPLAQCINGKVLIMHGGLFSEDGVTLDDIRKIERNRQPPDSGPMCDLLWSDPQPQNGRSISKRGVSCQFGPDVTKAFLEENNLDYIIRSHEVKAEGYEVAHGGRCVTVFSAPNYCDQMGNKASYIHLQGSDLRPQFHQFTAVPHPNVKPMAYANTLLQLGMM

Row | IC50 | SMILES
1 | 2.86 µM | CC(C)Oc1ccccc1-c1n[nH]nc1C(=O)O
2 | 16.1 µM | Cc1ccccc1-c1n[nH]nc1C(=O)O
3 | 19.9 µM | CCc1ccccc1-c1n[nH]nc1C(=O)O
4 | inactive | O=C(O)c1n[nH]nc1-c1ccccc1-c1ccccc1
5 | inactive | CC(C)c1ccccc1-c1n[nH]nc1C(=O)O
6 | 3.62 µM | CCOc1ccccc1-c1n[nH]nc1C(=O)O
7 | inactive | O=C(O)c1n[nH]nc1-c1ccccn1

— PubChem BioAssay AID624433 (The Scripps Research Institute Molecular Screening Center, 2012)
